The results in this text go back to ChEMBL document CHEMBL3507680, “University of Dundee, Gates Library screen for HepG2 cell viability”.

The series can be described thus: Human HepG2 cell viability assay in 384 well format. Further details: dose 125 nL, time 70.5 hour; cytotoxicity at 70.5 h: concentration not given beside the values. It is filed as toxicity, cell-based. The note with it: HepG2 cells, read-out: Inhibition.
As for `CCCn1ccnc1-c1cccc(NC2CCOC2)c1` (stereo not drawn), the cytotoxicity at 70.5 h is -1.36%. In the case of `CCCN(Cc1nnnn1C1CC1)CC1COc2ccccc2O1` (stereo not drawn) it was 0.609%; in that of `O=C(NCc1nnc2n1CCC2)c1cn(-c2ccccc2Br)nn1`, -2.93%; in that of `N#Cc1cccnc1NCCc1cc(F)cc2c1OCOC2`, 24%.

Turning to `O=C(Cc1c(F)cccc1Cl)NC1CCCCNC1=O` (stereo not drawn), the cytotoxicity at 70.5 h is -5.89%. On to `Cc1ccc(-n2cc(C(=O)NCc3nnc4n3CCCCC4)nn2)cc1`, for which the cytotoxicity at 70.5 h is -3.85%. In the case of `CCn1cc(NC(=O)NCCN2CCCc3ccccc32)cn1` it was 0.821%; in that of `FC(F)(F)Oc1cccc(CNCc2ccc(-n3cncn3)nc2)c1`, 26.6%. As for `CC(C)C(CCO)NC(=O)Nc1ccc(-c2csnn2)cc1` (stereo not drawn), the cytotoxicity at 70.5 h was -5.31%. Consider `COc1cccc(F)c1C(C)NC(=O)NCc1cnc(C)s1` (stereo not drawn), for which the cytotoxicity at 70.5 h is -1.56%. Regarding `CC(C)(C)NC(=O)CNc1ncc(Br)cn1`, the cytotoxicity at 70.5 h turned out to be 0.722%.

`N#Cc1cc(S(N)(=O)=O)ccc1N1CCc2c(Cl)cccc2C1`: the cytotoxicity at 70.5 h came to 42.5%.

Consider `COc1c(C(=O)NC(C)Cc2ccccc2Cl)c(C)nn1C` (stereo not drawn), for which the cytotoxicity at 70.5 h amounted to 3.5%. In the case of `O=S(=O)(NC1CCOC1)c1ccc(C(F)(F)F)nc1` (stereo not drawn) it was -2.28%; in that of `CCN(CCNS(=O)(=O)N1CCOCC1)C(=O)OC(C)(C)C`, 30.7%; in that of `CCCn1nnnc1CN(CC)CC1COc2ccccc2O1` (stereo not drawn), 2.13%.

For `Cc1nccn1-c1cccc(N2CCC(OCC3CCCCO3)CC2)n1` (stereo not drawn), the cytotoxicity at 70.5 h was -11.6%. Consider `COC(=O)c1ncccc1N1CCCCC1`, for which the cytotoxicity at 70.5 h is -6.28%. Consider `CC(C)Oc1cccc(CN(C)C(=O)Cc2ccon2)c1`, for which the cytotoxicity at 70.5 h was 4.02%.

As for `CN(CC(O)C(F)(F)F)C(=O)Nc1cccc(C(F)F)c1` (stereo not drawn), the cytotoxicity at 70.5 h is -7.43%. Then `Clc1cccc(C(CNCc2cccnc2)N2CCOCC2)c1` (stereo not drawn), with 29.7%; and `Cc1cnn(Cc2ccc(NC(=O)N3CCCCC3CO)cc2)c1` (stereo not drawn), with 24.6%; and `Cc1ccc(C(C)(O)CNC(=O)NCCc2ccc3c(c2)CCO3)o1` (stereo not drawn), with 26.1%. In the case of `COc1cc(CNC(=O)c2cc(Cl)ccc2F)ccn1` it was -5.8%. For `COc1cc(CNC(=O)c2cc(S(C)(=O)=O)ccc2C)ccn1`, the cytotoxicity at 70.5 h is -10.5%.

Consider `COc1cc(C#N)ccc1OCC(=O)NS(=O)(=O)c1cccnc1`, for which the cytotoxicity at 70.5 h was -7.29%.

Consider `CCS(=O)(=O)Cc1csc(-c2ccc(S(C)(=O)=O)cc2)n1`, for which the cytotoxicity at 70.5 h was -6.86%. In the case of `Cc1ccc(NC(C(N)=O)c2ccc(F)cc2)cc1` (stereo not drawn), the cytotoxicity at 70.5 h was -0.0602%.

Regarding `COc1cc(C#N)ccc1OCC(=O)NS(=O)(=O)c1ccccc1`, the cytotoxicity at 70.5 h was -7.96%. `CC(C)(C)Oc1ccc(CN)c(C(F)(F)F)c1`: the cytotoxicity at 70.5 h turned out to be 6.84%.

Take `CC(CS(C)(=O)=O)N(C)C(=O)NCCCc1ccc(Cl)cc1` (stereo not drawn): the cytotoxicity at 70.5 h is -3.65%.

With `Cc1noc(CCCNC(=O)CNC(=O)c2cc3ccccc3[nH]2)n1`, the cytotoxicity at 70.5 h was -5.29%. Turning to `CC(C)(C)c1nccc(N2CCCCC2CNS(C)(=O)=O)n1` (stereo not drawn), the cytotoxicity at 70.5 h is -4.1%. In the case of `CCCc1csc(-c2ccc(S(C)(=O)=O)cc2)n1` it was -1.59%. On to `NC(=O)c1cc(C2CC2)nc2ccc(F)cc12`, for which the cytotoxicity at 70.5 h turned out to be 2.17%. In the case of `Cc1cc(C)c2nc(C3CC3)cc(C(=O)N3CCCC3C(N)=O)c2c1` (stereo not drawn) it was 26.2%. `CC(NC(=O)CCn1cccn1)c1cn(-c2ccccc2)nn1` (stereo not drawn): the cytotoxicity at 70.5 h was -5.23%. On to `COc1ccc(Cl)cc1CCNC(=O)NCc1ccncc1`, for which the cytotoxicity at 70.5 h was -0.665%.

Turning to `Cc1cc(C(F)(F)F)c2c(=O)n(Cc3cc(C)on3)n(C)c2n1`, the cytotoxicity at 70.5 h was -8.02%.

`CCN(CC)C1CCN(C(=O)NCc2cccc(-n3ccnc3)c2)C1` (stereo not drawn): the cytotoxicity at 70.5 h was -6.04%. Then `O=C(Nc1cnn(Cc2ccc(Cl)cc2)c1)N1CCCC1CO` (stereo not drawn), with -7.38%; and `CCN(CC)C1CCN(C(=O)NCc2cccc(-n3cccn3)c2)C1` (stereo not drawn), with -8.43%; and `CC(Cc1ccc(Cl)cc1)N(C)C(=O)NCCS(C)(=O)=O` (stereo not drawn), with 18.5%. Then `Cc1ccccc1Cn1cnc2oc(C)c(C(=O)O)c2c1=O`, with -11.3%; and `CN(C)c1cccc(C(=O)Nc2ccn(CCc3ccncc3)n2)c1`, with -12.6%; and `Cc1noc(C2CCN(Cn3cc(Br)cn3)CC2)n1`, with -8.17%.

Consider `CN(C)S(=O)(=O)c1ccc(=O)n(CC2CCCCO2)c1` (stereo not drawn), for which the cytotoxicity at 70.5 h is -12.9%. Then `CN(C)S(=O)(=O)c1ccc(=O)n(CC2CCCO2)c1` (stereo not drawn), with -1.56%; and `Cc1cc(C[S+]([O-])Cc2ccccc2C)no1` (stereo not drawn), with -8.16%; and `Cc1cnn(C2CN(CCCOc3ccc(C#N)cc3)C2)c1`, with -2.39%. Then `NC(=O)C1CCN(c2ncccc2C(=O)N2CCc3ccccc32)C1` (stereo not drawn), with -5.78%; and `Cc1cc(C(=O)NC(C)CC(=O)c2ccco2)[nH]n1` (stereo not drawn), with 15.2%; and `CCOc1ccc(Cl)cc1CCNC(=O)c1ccc(=O)n(C)c1`, with -10.2%. In the case of `CCS(=O)(=O)NCC(=O)NC1(C)CCc2ccccc2C1` (stereo not drawn) it was -5.54%; in that of `CCN1CC(COC(=O)c2cc(C)nn2CC)CC1=O` (stereo not drawn), -7.36%; in that of `Cc1nsc(N2CCCN(CC(=O)N(C)C3CC3)CC2)n1`, -4.31%. Take `CC(CC(=O)c1ccco1)NC(=O)c1ccccn1` (stereo not drawn): the cytotoxicity at 70.5 h was -10.8%. Then `CCc1nsc(N2CCCN(CC(=O)N(C)C3CC3)CC2)n1`, with -6.24%.

`Cc1cnn(C2CN(CC(O)COc3ccc(C#N)cc3)C2)c1` (stereo not drawn): the cytotoxicity at 70.5 h was -3.3%. Turning to `COCCN(C)CC1CCCN1S(=O)(=O)Cc1ccccc1F` (stereo not drawn), the cytotoxicity at 70.5 h came out at 13.2%. Turning to `Cc1ccc(C(=O)NCC(O)CN2CCCC2=O)cc1Cl` (stereo not drawn), the cytotoxicity at 70.5 h stood at 6.85%. Regarding `Cc1noc(C)c1CC(=O)NCCc1cccs1`, the cytotoxicity at 70.5 h is 7.71%. In the case of `CCOC(=O)C(C)NC(=O)CCc1ccc(F)cc1` (stereo not drawn) it was 1.35%; in that of `NC(=O)Nc1cccc(CNC(=O)CCCc2ccccc2)c1`, 18%. Then `O=C(CCNC(=O)NC1CC1)NCc1ccccc1`, with -6.54%; and `CCc1ncc(C(=O)N2CCN(c3nc(C)cc(OC)n3)CC2)s1`, with 15.8%. Consider `CCc1[nH]ncc1C(=O)N1CCN(c2nc(C)cc(OC)n2)CC1`, for which the cytotoxicity at 70.5 h is -4.16%. As to `CC(C)(C)C(=O)NCCC(=O)NS(=O)(=O)c1cccnc1`, the cytotoxicity at 70.5 h was found to be 9.3%. Turning to `CCn1nc2c(cc1=O)CN(CCOc1ccc(C#N)cc1)CC2`, the cytotoxicity at 70.5 h was 17.6%.

`OCCN(Cc1cccnc1)c1cnc2ccccc2n1`: the cytotoxicity at 70.5 h was -4.32%.

Regarding `Cc1cccc(C)c1CN1C(=O)CC2(CCSC2)C1=O` (stereo not drawn), the cytotoxicity at 70.5 h came out at 0.0631%.

For `OCCN(Cc1cccnc1)c1ccc(Br)cn1`, the cytotoxicity at 70.5 h is -2.3%. On to `CN(CC(N)=O)C(=O)CCCn1ccc2cc(Cl)ccc21`, for which the cytotoxicity at 70.5 h stood at 10.8%. Then `CN1CCN(C2CCN(Cc3ccc(Cl)cc3)CC2)C1=O`, with -2.16%. As for `COCC(C)NC(=O)CCSc1ccc(F)cc1` (stereo not drawn), the cytotoxicity at 70.5 h was found to be 13.7%.

Take `CCN(CC)C(=O)CNC(=O)c1cnc(-c2ccccc2)nc1`: the cytotoxicity at 70.5 h was -2.98%. Then `Cc1cccc(CN2CCC(NCC3CNc4cc(C)nn4C3)CC2)c1` (stereo not drawn), with -6.82%. In the case of `Cc1cc2n(n1)CC(CNC1CCN(C(=O)c3ccco3)CC1)CN2` (stereo not drawn) it was -6.69%; in that of `Cc1cc2n(n1)CC(CNC1CCN(C3CC3)CC1)CN2` (stereo not drawn), -4.14%; in that of `Cc1cc(S(=O)(=O)Nc2cccc(I)c2)sc1C(=O)O`, 13.9%.

On to `O=C(NCC1CC1)c1cnc(-c2ccccc2)nc1`, for which the cytotoxicity at 70.5 h was -5.81%.

`CC(=O)c1cccc(NS(=O)(=O)c2cc(C)c(C(=O)O)s2)c1`: the cytotoxicity at 70.5 h is -4.79%. In the case of `Cc1noc(C)c1CCC(=O)NC(C)c1nnc2n1CCCCC2` (stereo not drawn) it was -4.24%; in that of `Cc1nc(CN2CCC(CNC(=O)Nc3ccccc3)CC2)oc1C`, -6.72%. Consider `CCOc1ccc(NS(=O)(=O)c2cc(C)c(C(=O)O)s2)cc1F`, for which the cytotoxicity at 70.5 h is -8.14%. On to `CCOc1c(Cl)cccc1NS(=O)(=O)c1cc(C)c(C(=O)O)s1`, for which the cytotoxicity at 70.5 h was -4.74%. Consider `Cn1cc(N2CCC(NC(=O)c3ccccc3F)C2=O)cn1` (stereo not drawn), for which the cytotoxicity at 70.5 h is -1.23%. As for `Cc1cccc(C(=O)NC2CCN(c3cnn(C)c3)C2=O)c1C` (stereo not drawn), the cytotoxicity at 70.5 h is -2.07%.

In the case of `CCC(CC)c1cc(CNC(=O)N2CCN(CC)CC2)on1`, the cytotoxicity at 70.5 h was -2.19%.

As for `CCOC(=O)NC(CNC(=O)c1cn(C)cn1)CC(C)C` (stereo not drawn), the cytotoxicity at 70.5 h was -1.97%. Then `CCC(CC)c1cc(CNC(=O)N2CCC(n3cncn3)CC2)on1`, with -1.7%; and `CC(NC(=O)CCCc1nc(C(C)(C)C)no1)c1nnc2n1CCC2` (stereo not drawn), with -2.92%. In the case of `CCN1CCN(c2ccc(F)cc2C(C)NCc2ccnn2C)CC1` (stereo not drawn) it was -1.9%. Then `O=C(CNc1cc2c(cc1Cl)OCCCO2)NCc1ccc(F)cc1`, with -4.01%; and `CC(NC(=O)COc1ccccc1C(=O)O)c1ccc(F)cc1` (stereo not drawn), with -9.45%. Consider `CC(C)OCCC(=O)Nc1cccc(N2CCN(CC3CC3)CC2)c1`, for which the cytotoxicity at 70.5 h is -4.83%. Regarding `N#Cc1ccnc(N2CCN(CC(O)c3ccc(F)cc3F)CC2)c1` (stereo not drawn), the cytotoxicity at 70.5 h was -3.3%. In the case of `N#Cc1ccnc(N2CCN(CC(O)c3cc(F)ccc3F)CC2)c1` (stereo not drawn) it was -5.77%. In the case of `N#Cc1ccnc(N2CCN(CC(O)c3ccccc3)CC2)c1` (stereo not drawn) it was -8.1%. For `Cc1ccc(CNC(=O)C2CCCCN2C(=O)OC(C)(C)C)cn1` (stereo not drawn), the cytotoxicity at 70.5 h was -3.38%.

In the case of `O=S(=O)(CCN1CCOC(Cn2cccn2)C1)c1ccccc1` (stereo not drawn), the cytotoxicity at 70.5 h is -7.12%. `Cc1[nH]c(C2(N)CCCCC2)nc(=O)c1C`: the cytotoxicity at 70.5 h was -4.13%. Take `CCc1c(C)[nH]c(C2(N)CCCCC2)nc1=O`: the cytotoxicity at 70.5 h came out at 0.763%.
